Tests used:
[1] = target: T1, XSepA (Xenopus laevis, UniProt Q9DE33); experiment: GTP filter binding assay; conditions: for ability of cold nucleotide to compete with the radiolabeled guanine nucleotide: data not shown
T1 construct: made in house; host or cells: E. coli BL21(DE3)
T1 sequence (Q9DE33 1-356): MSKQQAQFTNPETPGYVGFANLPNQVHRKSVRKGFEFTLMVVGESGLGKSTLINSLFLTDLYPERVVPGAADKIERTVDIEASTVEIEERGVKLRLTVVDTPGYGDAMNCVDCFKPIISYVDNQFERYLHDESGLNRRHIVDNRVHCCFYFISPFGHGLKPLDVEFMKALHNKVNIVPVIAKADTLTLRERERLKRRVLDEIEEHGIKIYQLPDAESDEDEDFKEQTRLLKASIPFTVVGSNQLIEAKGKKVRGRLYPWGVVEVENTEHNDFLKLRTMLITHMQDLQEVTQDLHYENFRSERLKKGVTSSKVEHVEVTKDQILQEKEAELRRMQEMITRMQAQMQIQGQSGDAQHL
Experimental: For GTP binding, 1 μM of XSepA (or Δcc-SepA) in S-buffer was incubated with 0.1 mg/ml BSA, 5 mM MgCl2 and 4.4 μM ^3H-GTP (4.60 Ci/mmol, 1 mCi/ml; Amersham). At time intervals, aliquots of the reaction were diluted in cold wash buffer (20 mM Tris pH 8.0, 50 mM NaCl, 5 mM MgCl2) and filtered through pre-wetted nitrocellulose circles (Schleicher and Schuell) Filters were washed with 10 ml of wash buffer, dried, and the retained radioactivity quantified in a scintillation counter.
The ability of recombinant XSepA to bind guanine nucleotide was tested by using a filter binding assay. […] To assay for GTP hydrolysis, XSepA was incubated with limiting amounts of [α-^32P]GTP and the production of radioactive GDP was followed by thin layer chromatography. […] FIGS. 1C and 1D show time courses of GTP binding and hydrolysis by XSepA and Δcc-SepA. Recombinant protein (1 μM) was incubated with an excess of [^3H]GTP to quantify nucleotide binding, or with sub-stoichiometric amounts of [α-^32P]GTP to detect nucleotide hydrolysis. (C) GTP binding as determined by a filter-binding assay. (D) TLC plate showing generation of radioactive GDP from GTP. Aliquots of the reaction were quenched in a denaturing solution at the indicated time, and the nucleotide content was resolved by TLC. BSA (0.1 mg/ml) was used as a negative control in both experiments.)

[2] = target: T1, XSepA; experiment: Filament assembly / polymerization followed by immunofluorescence microscopy; assay type: biochemical; conditions: for filamentous structures observed: control nucleotide used instead of GTP, 30 minutes; for length of the lag phase of polymerization: 1 mg/ml XSepA, 0.1 mM nucleotide; for critical concentration for XSepA polymerization: 30 min incubation with nucleotide
Experimental: (§1) Polymerization reactions were carried out in S-buffer in the presence of 5 mM MgCl2 and GTP, GTP-γ-S, GDP or ATP (Gibco). Before nucleotide addition, all samples were pre-cleared in an ultracentrifuge (see below). Aliquots of the reaction were diluted to a final septin concentration of 3.3 μg/ml, and 100 μl drops spotted on glass coverslips for 1 min. Before use, coverslips were soaked with an acetone solution of 0.5% 3-aminopropyltriethoxy-silane (Sigma), washed in acetone and air-dried. Following sample application, the coverslips were washed with 2 ml S-buffer, fixed in cold methanol for 10 min and stained with a polyclonal rabbit antibody raised against an N-terminal peptide of XSepA (M. Glotzer and T. Hyman, in preparation). Secondary antibodies were DTAF-coupled anti-rabbit (Dianova). Images were acquired using a Zeiss Axioplan II microscope and Adobe Photoshop software. Processing and analysis of immunofluorescence images was performed on a Macintosh computer using the public domain NIH Image program (developed at the U.S. National Institutes of Health and available at http://rsb.info.nih.gov/nih-image). Thresholded binary images were generated, and particle length was obtained by measuring the major axis of the best fitting ellipse. Particles with length <0.4 μm were not included in the analysis. Although filaments tended to be straight, this procedure results in underestimation of the length of curved filaments. For sedimentation assays, 20 μl polymerization reactions containing 1 mg/ml septin were pre-cleared in an ultracentrifuge at 279000×g for 15 min at 4° C. Precleared samples were incubated with nucleotide at room temperature for 30 min and spun through a 50% glycerol cushion at 279000×g for 15 min at 25° C.
Filament forming proteins like actin, tubulin and FtsZ polymerize in a nucleotide-dependent fashion. To test whether septin filament assembly is regulated by a similar mechanism, XSepA was incubated with GTP (or its slowly hydrolyzable analogue GTP-γ-S) for 30 minutes and spotted onto glass coverslips. After the coverslips were fixed and stained with anti-XSepA antibody, filamentous structures of up to 7 μm in length were observed. […] FIGS. 2A and 2B depict the GTP-dependent assembly of XSepA and Δcc-SepA filaments. Top panels: Immunostainings of septin preparations (1 mg/ml) incubated with 0.1 mM of the indicated nucleotide for 30 min and diluted in S-buffer prior to fixation. Filamentous structures are observed with both full-length (A) and Δcc-SepA (B) only in the presence of GTP or GTP-γ-S. Bottom panels: Identical reactions were centrifuged through a 50% glycerol cushion at 279000×g for 15 min. Supernatants (S) and pellets (P) were collected and resolved by gel electrophoresis.
To gain insight into the polymerization mechanism of XSepA, the kinetics of the filament formation reaction was followed using immunofluorescence microscopy. At different times after GTP addition, aliquots of septin protein were processed for immunofluorescence as already described. For each time point, individual septin filaments were counted and their lengths measured. The length of all the filaments present in a field was added, and the result (proportional to the polymer mass) was plotted against time. Immunofluorescence images were acquired as described and the length of the filaments was measured (see Methods section). The relative polymer mass was obtained by adding the length of all the filaments present in a field. Each point represents data from four random fields. Only filaments of ≧400 nm in length were considered in the analysis. (A) Time course of filament assembly. At different times following nucleotide addition to 0.1 mM (t=0 min) aliquots of a reaction containing 1 mg/ml XSepA were diluted 300-fold and spotted on coverslips for 1 min before washing and fixation. (B) Determination of the critical concentration for polymerization. […]

[3] = target: T1, XSepA; experiment: Filament sedimentation assay through glycerol cushion; assay type: biochemical; conditions: 1 mg/ml septin, 0.1 mM nucleotide, 30 min, 279000×g
Experimental: as §1, with “Although filaments tended to be straight, this procedure results in underestimation of the length of curved filaments. For sedimentation assays, 20 μl polymerization reactions containing 1 mg/ml septin were pre-cleared in an ultracentrifuge at 279000×g for 15 min at 4° C. Precleared samples were incubated with nucleotide at room temperature for 30 min and spun through a 50% glycerol cushion at 279000×g for 15 min at 25° C.” left out

[4] = target: T2, XSepA filaments (Xenopus laevis, UniProt Q9DE33); experiment: Dilution-induced filament depolymerization; assay type: biochemical; conditions: 20 min after 600-fold dilution into buffer
T2 construct: made in house; host or cells: E. coli BL21(DE3)
T2 sequence (Q9DE33 1-356): T1 sequence (Q9DE33 1-356)
Experimental: To gain insight into the polymerization mechanism of XSepA, the kinetics of the filament formation reaction was followed using immunofluorescence microscopy. At different times after GTP addition, aliquots of septin protein were processed for immunofluorescence as already described. For each time point, individual septin filaments were counted and their lengths measured. The length of all the filaments present in a field was added, and the result (proportional to the polymer mass) was plotted against time. Immunofluorescence images were acquired as described and the length of the filaments was measured (see Methods section). The relative polymer mass was obtained by adding the length of all the filaments present in a field. Each point represents data from four random fields. Only filaments of ≧400 nm in length were considered in the analysis. (A) Time course of filament assembly. […] Polymer content was determined after 30 min incubation. […] In (B) and (C) a curve was fitted to the data points where filaments were detected.
To address the role of GTP hydrolysis in septin filament formation, the polymerization kinetics of XSepA in the presence of a slowly hydrolysable GTP analogue, GTP-γ-S, was studied. […] To investigate directly whether nucleotide hydrolysis promotes disassembly, filaments assembled with GTP or GTP-γ-S were diluted 600-fold into buffer and depolymerization rates were determined. […]

[5] = literature values; tubulin: pure, in glycerol buffer; cited from earlier work

Compound | ability of cold nucleotide to compete with the radiolabeled guanine nucleotide [1] | filamentous structures observed [2] | length of the lag phase of polymerization [2] | critical concentration for XSepA polymerization [2] | sedimentable fraction of septin after incubation with nucleotide [3] | also measured
Nc1nc2c(ncn2[C@@H]2O[C@H](COP(=O)(O)OP(=O)(O)O)[C@@H](O)[C@H]2O)c(=O)[nH]1 [GDP] | not | This was not the case |  |  |  | 
Nc1nc2c(ncn2[C@@H]2O[C@H](COP(=O)(O)OP(=O)(O)OP(O)(O)=S)[C@@H](O)[C@H]2O)c(=O)[nH]1 [GTP-γ-S] |  |  | 3 min | 0.2 mg/mL | increased significantly | filaments still present [4]: ca. 30 % of their initial level
actin |  |  |  |  |  | critical concentration for polymerization [5]: ~0.2 µM

Second part, led by results:

ability of cold nucleotide to compete with the radiolabeled guanine nucleotide [1] | filamentous structures observed [2] | Compound | length of the lag phase of polymerization [2] | critical concentration for XSepA polymerization [2] | sedimentable fraction of septin after incubation with nucleotide [3] | also measured
not | This was not the case | Nc1ncnc2c1ncn2[C@@H]1O[C@H](COP(=O)(O)OP(=O)(O)OP(=O)(O)O)[C@@H](O)[C@H]1O [ATP] |  |  |  | 
able to compete |  | Nc1nc2c(ncn2[C@@H]2O[C@H](COP(=O)(O)OP(=O)(O)OP(=O)(O)O)[C@@H](O)[C@H]2O)c(=O)[nH]1 [GTP, guanosine triphosphate] | 5 min | 0.5 mg/mL | increased significantly | GTP binding plateau ([1]; filter binding, excess [3H]GTP): 0.4-0.5 moles GTP/moles of XSepA; time to essentially complete maximum of nucleotide binding ([1]; limiting concentration of nucleotide, not shown): ≤ 5 min; depolymerization after dilution [4]: essentially complete

From patent US6485924B2, “Method for identifying inhibitors of cytokinesis” (Boehringer Ingelheim International GmbH, priority 1999, dated 2002)
